# According to patent US20240239752A1, “BICYCLIC HETEROAROMATIC INHIBITORS OF KLK5” (BioCryst Pharmaceuticals, Inc., priority 2021, published 2024):
# Biological target: T1, recombinant human KLK5 (Homo sapiens, UniProt Q9Y337)
# T1 construct: purchased Novoprotein or R&D Systems C415 or 1108-SE
# T1 sequence (Q9Y337 23-293): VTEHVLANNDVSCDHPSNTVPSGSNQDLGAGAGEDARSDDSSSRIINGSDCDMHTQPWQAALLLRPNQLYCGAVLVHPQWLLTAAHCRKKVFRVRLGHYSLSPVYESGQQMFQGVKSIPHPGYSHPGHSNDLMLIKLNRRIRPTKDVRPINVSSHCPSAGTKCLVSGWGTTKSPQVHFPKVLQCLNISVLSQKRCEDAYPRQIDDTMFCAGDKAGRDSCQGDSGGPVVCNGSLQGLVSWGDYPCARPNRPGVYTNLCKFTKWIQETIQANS
# Assay: Kallikrein (KLK) 5 enzymatic assay (Boc-VPR-AMC fluorogenic substrate)
# Type: biochemical
# Conditions: recombinant human KLK5 0.1 μg/well, Boc-VPR-AMC 100 μM, pH 7.5, room temperature, 1% DMSO; tested a minimum of three times
# Outline: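 Fluorogenic rate assay at pH 7.5 (0.1 M NaH2PO4, 1% DMSO, room temperature), run at least three times per compound. Compound was premixed with 0.1 μg/well recombinant human KLK5 before adding 100 μM Boc-VPR-AMC; AMC release was read at ex 380/em 460 nm, and IC50 derived from inhibition of rate vs DMSO control.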
row,SMILES,IC50 [nM]
1,"Nc1nccc2ccc(-c3cnc4c(c3)c(COc3ccccc3CC(=O)O)nn4C3CCC3)cc12 [Compound 197j, 2-(2-((5-(1-aminoisoquinolin-7-yl)-1-cyclobutyl-1H-pyrazolo[3,4-b]pyridin-3-yl)methoxy)phenyl)acetic acid]",< 1000
2,"Nc1nccc2c(-c3cnc4c(c3)c(COc3ccccc3CC(=O)O)nn4C3CCC3)cccc12 [Compound 198b, 2-(2-((5-(1-aminoisoquinolin-5-yl)-1-cyclobutyl-1H-pyrazolo[3,4-b]pyridin-3-yl)methoxy)phenyl)acetic acid]",< 1000
3,"Nc1nccc2ccc(-c3ccc4c(c3)C(Oc3ccccc3CC(=O)O)CC4)cc12 (stereo not drawn) [Compound 199d, 2-(2-((6-(1-aminoisoquinolin-7-yl)-2,3-dihydro-1H-inden-1-yl)oxy)phenyl)acetic acid]",< 1000
4,"Nc1nccc2c(-c3ccc4c(c3)C(Oc3ccccc3CC(=O)O)CC4)cccc12 (stereo not drawn) [Compound 200b, 2-(2-((6-(1-aminoisoquinolin-5-yl)-2,3-dihydro-1H-inden-1-yl)oxy)phenyl)acetic acid]",< 1000
5,"Nc1nccc2ccc(-c3ccc4c(c3)c(COc3ccccc3CC(=O)O)nn4-c3ccccc3)cc12 [Compound 201c, 2-(2-((5-(1-aminoisoquinolin-7-yl)-1-phenyl-1H-indazol-3-yl)methoxy)phenyl)acetic acid]",< 1000
6,"Nc1nccc2c(-c3ccc4c(c3)c(COc3ccccc3CC(=O)O)nn4-c3ccccc3)cccc12 [Compound 202b, 2-(2-((5-(1-aminoisoquinolin-5-yl)-1-phenyl-1H-indazol-3-yl)methoxy)phenyl)acetic acid]",< 1000
7,"N=C(N)c1cccc(-c2ccc3c(c2)c(COc2ccccc2CC(=O)O)nn3-c2ccccc2)c1 [Compound 203c, 2-(2-((5-(3-carbamimidoylphenyl)-1-phenyl-1H-indazol-3-yl)methoxy)phenyl)acetic acid]",< 1000
8,"Nc1nccc2ccc(-c3ccc4c(c3)C(Oc3ccccc3CC(=O)O)CCC4)cc12 (stereo not drawn) [Compound 204d, 2-(2-((7-(1-aminoisoquinolin-7-yl)-1,2,3,4-tetrahydronaphthalen-1-yl)oxy)phenyl)acetic acid]",1000 to 10000
9,"Cc1cc(-c2ccc3ccnc(N)c3c2)cc2c1CCC2Oc1ccccc1CC(=O)O (stereo not drawn) [Compound 205e, 2-(2-((6-(1-aminoisoquinolin-7-yl)-4-methyl-2,3-dihydro-1H-inden-1-yl)oxy)phenyl)acetic acid]",1000 to 10000
10,"Cc1cc(-c2cccc3c(N)nccc23)cc2c1CCC2Oc1ccccc1CC(=O)O (stereo not drawn) [Compound 206b, 2-(2-((6-(1-aminoisoquinolin-5-yl)-4-methyl-2,3-dihydro-1H-inden-1-yl)oxy)phenyl)acetic acid]",< 1000
11,"Nc1nccc2ccc(-c3cc(F)c4c(c3)C(Oc3ccccc3CC(=O)O)CC4)cc12 (stereo not drawn) [Compound 207e, 2-(2-((6-(1-aminoisoquinolin-7-yl)-4-fluoro-2,3-dihydro-1H-inden-1-yl)oxy)phenyl)acetic acid]",< 1000
12,"Nc1nccc2c(-c3cc(F)c4c(c3)C(Oc3ccccc3CC(=O)O)CC4)cccc12 (stereo not drawn) [Compound 208b, 2-(2-((6-(1-aminoisoquinolin-5-yl)-4-fluoro-2,3-dihydro-1H-inden-1-yl)oxy)phenyl)acetic acid]",< 1000
13,"Nc1nccc2ccc(-c3ccc4c(c3)C(Oc3ccccc3CC(=O)O)c3ccccc3-4)cc12 (stereo not drawn) [Compound 209e, 2-(2-((2-(1-aminoisoquinolin-7-yl)-9H-fluoren-9-yl)oxy)phenyl)acetic acid]",< 1000
14,"Nc1nccc2c(-c3ccc4c(c3)C(Oc3ccccc3CC(=O)O)c3ccccc3-4)cccc12 (stereo not drawn) [Compound 210b, 2-(2-((2-(1-aminoisoquinolin-5-yl)-9H-fluoren-9-yl)oxy)phenyl)acetic acid]",< 1000

# Continued, values first:
row,IC50 [nM],SMILES
1,1000 to 10000,"COc1ccc(-c2ccc3c(c2)c(COc2ccccc2CC(=O)O)nn3C(C)C)cc1C(=N)N [Compound 211e, 2-(2-((5-(3-carbamimidoyl-4-methoxyphenyl)-1-isopropyl-1H-indazol-3-yl)methoxy)phenyl)acetic acid]"
2,1000 to 10000,"CC(C)n1nc(COc2ccccc2CC(=O)O)c2cc(-c3cccc4c3OCC4N)ccc21 (stereo not drawn) [Compound 212c, 2-(2-((5-(3-amino-2,3-dihydrobenzofuran-7-yl)-1-isopropyl-1H-indazol-3-yl)methoxy)phenyl)acetic acid]"
3,> 10000,"CC(C)n1nc(COc2ccccc2CC(=O)O)c2cc(-c3cccc4c3OCCC4N)ccc21 (stereo not drawn) [Compound 213c, 2-(2-((5-(4-aminochroman-8-yl)-1-isopropyl-1H-indazol-3-yl)methoxy)phenyl)acetic acid]"
4,> 10000,"CC(C)n1nc(COc2ccccc2CC(=O)O)c2cc(-c3ccc4c(c3)C(N)CCO4)ccc21 (stereo not drawn) [Compound 214c, 2-(2-((5-(4-aminochroman-6-yl)-1-isopropyl-1H-indazol-3-yl)methoxy)phenyl)acetic acid]"
5,< 1000,"Nc1nccc2ccc(-c3ccc4c(c3)[C@H](Oc3ccccc3CC(=O)O)CC4)cc12 [Compound 215d, (R)-2-(2-((6-(1-aminoisoquinolin-7-yl)-2,3-dihydro-1H-inden-1-yl)oxy)phenyl)acetic acid]"
6,< 1000,"Nc1nccc2c(-c3ccc4c(c3)[C@H](Oc3ccccc3CC(=O)O)CC4)cccc12 [Compound 216b, (R)-2-(2-((6-(1-aminoisoquinolin-5-yl)-2,3-dihydro-1H-inden-1-yl)oxy)phenyl)acetic acid]"
7,> 10000,"Cn1c(=O)n(Cc2ccccc2CC(=O)O)c2cc(-c3ccc4ccnc(N)c4c3)ccc21 [Compound 217e, 2-(2-((6-(1-aminoisoquinolin-7-yl)-3-methyl-2-oxo-2,3-dihydro-1H-benzo[d]imidazol-1-yl)methyl)phenyl)acetic acid]"
8,1000 to 10000,"Cn1c(=O)n(Cc2ccccc2CC(=O)O)c2cc(-c3cccc4c(N)nccc34)ccc21 [Compound 218b, 2-(2-((6-(1-aminoisoquinolin-5-yl)-3-methyl-2-oxo-2,3-dihydro-1H-benzo[d]imidazol-1-yl)methyl)phenyl)acetic acid]"
9,1000 to 10000,"Cn1c(=O)n(Cc2ccccc2CC(=O)O)c2cc(-c3cccc(C(=N)N)c3)ccc21 [Compound 219c, 2-(2-((6-(3-carbamimidoylphenyl)-3-methyl-2-oxo-2,3-dihydro-1H-benzo[d]imidazol-1-yl)methyl)phenyl)acetic acid]"
10,1000 to 10000,"Cn1c(=O)n(Cc2ccccc2CC(=O)O)c2cc(-c3cccc(C(N)=O)c3)ccc21 [Compound 219d, 2-(2-((6-(3-carbamoylphenyl)-3-methyl-2-oxo-2,3-dihydro-1H-benzo[d]imidazol-1-yl)methyl)phenyl)acetic acid]"
11,1000 to 10000,"Cc1cc2c(-c3ccc4c(c3)c(COc3ccccc3CC(=O)O)nn4C(C)C)cccc2c(N)n1 [Compound 220d, 2-(2-((5-(1-amino-3-methylisoquinolin-5-yl)-1-isopropyl-1H-indazol-3-yl)methoxy)phenyl)acetic acid]"
12,1000 to 10000,"Nc1nccc2ccc(-c3ccc4c(c3)[C@@H](Oc3ccccc3CC(=O)O)CC4)cc12 [Compound 221d, (S)-2-(2-((6-(1-aminoisoquinolin-7-yl)-2,3-dihydro-1H-inden-1-yl)oxy)phenyl)acetic acid]"
13,1000 to 10000,"Nc1nccc2c(-c3ccc4c(c3)[C@@H](Oc3ccccc3CC(=O)O)CC4)cccc12 [Compound 222b, (S)-2-(2-((6-(1-aminoisoquinolin-5-yl)-2,3-dihydro-1H-inden-1-yl)oxy)phenyl)acetic acid]"
